Data: ChEMBL document CHEMBL5338766, “X-ray Crystal Structure-Guided Discovery of Novel Indole Analogues as Colchicine-Binding Site Tubulin Inhibitors with Immune-Potentiating and Antitumor Effects against Melanoma” (J Med Chem, 2023)

How the values were obtained:
[1] = Toxicity in C57 mouse implanted with mouse B16-F10 cells assessed as body weight loss at 2.5 mg/kg, ip administered every day for 14 days in the presence of NP19; format: organism-based; settings: in vivo, 336 h, time 14 day
[2] = AUC(0 to t) in Sprague-Dawley rat at 2 mg/kg, iv measured upto 12 hrs by UPLC-MS/ESI analysis; format: ADME, organism-based; design: time < 12 hrs, dose 2 mg/kg, route iv; settings: in vivo
[3] = AUC(0 to infinity) in Sprague-Dawley rat at 2 mg/kg, iv measured upto 12 hrs by UPLC-MS/ESI analysis; format: ADME, organism-based; design: dose 2 mg/kg, time < 12 hrs, route iv; settings: in vivo
[4] = MRT(0 to infinity) in Sprague-Dawley rat at 2 mg/kg, iv measured upto 12 hrs by UPLC-MS/ESI analysis; format: ADME, organism-based; settings: in vivo
[5] = system: HepG2; assay: Induction of apoptosis in human HepG2 cells assessed as necrotic cells at 1 nM incubated for 48 hrs by Annexin V-FITC/PI staining based flow cytometric analysis (reference value: 0.443%); format: functional
[6] = system: B16-F10; assay: Antitumor activity against mouse B16-F10 cells implanted in C57 mouse assessed as tumor growth inhibition at 2.5 mg/kg, ip administered every day for 14 days in the presence of NP19 relative to control; format: functional; settings: B16-F10, 336 h, time 14 day, read-out: TGI
[7] = Toxicity in C57 mouse implanted with mouse B16-F10 cells assessed as body weight loss at 5 mg/kg, ip administered every day for 14 days; format: organism-based; settings: in vivo, 336 h, time 14 day
[8] = system: B16-F10; assay: Antitumor immunity in C57 mouse implanted with mouse B16-F10 cells assessed as increase in CD3+ CD8+ cytotoxic T cells in tumor at 2.5 mg/kg, ip administered every day for 14 days in the presence of NP19 by flow cytometric analysis (reference value: 0.340%); format: functional; settings: time 14 day
[9] = system: HepG2; assay: Cell cycle arrest in human HepG2 cells assessed as accumulation of cells at G1 phase at 1 nM incubated for 48 hrs by RNaseA/PI staining based flow cytometric analysis (reference value: 56.11%); format: functional
[10] = system: HepG2; assay: Induction of apoptosis in human HepG2 cells assessed as late apoptotic cells at 1 nM incubated for 48 hrs by Annexin V-FITC/PI staining based flow cytometric analysis (reference value: 4.96 %); format: functional

COc1cc(-c2nccc3[nH]c(-c4cccc5c4ccn5C)nc23)cc(OC)c1OC
Activity [1]: Non-Toxic | AUC(0-t) at 12 h [2]: 3060 ng·h/mL | AUC(0-inf) [3]: 3080 ng·h/mL | MRT inf [4]: 1.86 h | Activity [5]: 0.189% | inhibition in vivo at 2.5 mg/kg [6]: 77.8% | Activity [7]: Non-Toxic | Activity [8]: 3.34% | Activity [9]: 41.37% | Activity [10]: 8.87%
